Source: US11591297B2, “Compound having PD-L1 expression-suppressing action” (TOHOKU UNIVERSITY, priority 2019, dated 2023)
pIC50: −log10 of the molar value.

Test system: PD-L1
Experiment: Inhibitory effect of PD-L1 expression by cell staining with anti-PD-L1 antibody in IFN-γ-treated THP-1 cells (flow cytometry)
Type: cell-based
Conditions: Homo sapiens, IFN-γ 25 ng/mL, 24±2 hours, subMFI anti-CD274-PC7, read-out: IC50 (50% PD-L1 expression inhibition concentration)
Experimental: The inhibitory effects of each compound of Examples 1 to 6 on the PD-L1 expression were evaluated according to the following procedures.
(1) Acute monocytic leukemia cell-derived THP-1 cells were suspended in RPMI medium containing 10% FCS and 1% P/S (hereinafter, referred to as “RPMI medium”) at 5×10^5 cells/mL to obtain a cell suspension, and the cell suspension was dispensed into each well of a 6 well-plate in an amount of 3 mL. In order to activate the THP-1 cells and express PD-L1 in the cells, IFN-γ (PEPROTECH, Cat. No. 300-02-100UG, >2e+7 U/mg) was added into each well at a concentration of 25 ng/mL (>500 U/mL). 50 mmol/L of the test compound solution was diluted with the medium (usually, in the range of 0.025 mmol/L to 1 mmol/L), and the diluted solution was added into each well in an amount of 60 μL. The plate was incubated in a CO2 incubator (at 37° C. and 5% CO2) for 24±2 hours. In the control group, only DMSO was added in place of the test compound. (2) A part of the prepared cell culture liquid was collected and the number of cells therein was counted using a cell counter (BIORAD TC-20). The cell culture liquid was centrifuged at 300×g for 5 minutes and the supernatant of the cell culture liquid was removed. The cells were suspended in calcium and magnesium free phosphate buffered saline (PBS−) containing 1% bovine serum albumin (BSA) at a cell concentration of 1 to 2×10^7 cells/mL to prepare a cell suspension. (3) Each cell suspension prepared in the above step (2) were added into a 5 mL tube in an amount of 25 μL. 2 μL of 2% normal mouse serum/PBS− was added into tubes, and the tubes were gently pipetted. The tubes were then allowed to stand at room temperature for 15 minutes. (4) Anti-CD274-PC7 antibody (BECKMAN COULTER, Cat. No. A78884) or mouse IgG1-PC7 antibody (BECKMAN COULTER, 737662) as control was added in each tube in an amount of 10 μL, and the tubes were gently stirred. The tubes were then allowed to stand in the dark on an ice bath for 30 minutes. (5) Foxp3/Transcription Factor Fix/Perm Concentrate (4×) (Cat. No. TNB-1020-L050) (A solution) supplied in FOXP3/Transcription Factor Staining kit (TONBO biosciences) was diluted in Foxp3/Transcription Factor Fix/Perm Diluent (1×) (Cat. No. TNB-1022-L160) (A dilution solution) to prepare a 1×A solution. (6) The 1×A solution was added into each tube in an amount of 1 mL, and the tubes were gently pipetted and stirred. The tubes were then allowed to stand in the dark at room temperature for 30 minutes and centrifuged at 300×g for 5 minutes, and then the supernatants therein were removed. (7) 2 mL of 1% BSA/PBS− was added into each tube and the tubes were gently stirred and centrifuged at 300×g for 5 minutes, and then the supernatants therein were removed. (8) The cells therein were suspended in 0.5 mL of 1% BSA/PBS- and measured with a flow cytometer (Sony: Cell Sorter SH800) within 2 hours. The results were analyzed with a software, FlowJo (Tree Star Inc.). The mean peak fluorescence intensity (MFI) of PD-L1 and mean peak fluorescence intensity of IgG1 were calculated from histograms of the measured fluorescence intensity and number of cells, and the mean fluorescence intensity of IgG1 was subtracted from that of PD-L1 to calculate the subMFI. The experiments were performed in n=2.
The subMFI values of the control cells calculated by the FlowJo analysis and the cells cultured with the addition of the test compounds at each concentration (test cells) were input into an Excel file, and the percentages of the subMFI values of the test cells at each concentration to the average subMFI value of control cells were calculated. The regression line was determined from the percentages of the subMFI values of the test cells at each concentration by the method of least squares to calculate the 50% PD-L1 expression inhibition concentration (IC50 value) of each compound.

Row | pIC50 | Structure (SMILES)
1 | 5.92 | O=C(Nc1ccc(Oc2ccc(C(F)(F)F)cc2)cc1)C1CCCN(C(=O)c2ccc([N+](=O)[O-])cc2)C1 (stereo not shown) [Example 2, 1-(4-Nitrobenzoyl)-N-(4-(4-(trifluoromethyl)phenoxy)phenyl) piperidine-3-carboxamide]
2 | 6.03 | COc1cc(C(=O)N2CCCC(C(=O)Nc3ccc(Oc4ccc(C(F)(F)F)cc4)cc3)C2)ccc1O (stereo not shown) [Example 3, 1-(4-Hydroxy-3-methoxybenzoyl)-N-(4-(4-(trifluoromethyl)phenoxy)phenyl)piperidine-3-carboxamide]
3 | 6.17 | O=C(Nc1ccc(Oc2ccc(S(F)(F)(F)(F)F)cc2)cc1)C1CCCN(C(=O)c2ccc([N+](=O)[O-])cc2)C1 (stereo not shown) [Example 5, 1-(4-Nitrobenzoyl)-N-(4-(4-(pentafluorosulfanyl)phenoxy)phenyl)piperidine-3-carboxamide]
4 | 6.08 | COc1cc(C(=O)N2CCCC(C(=O)Nc3ccc(Oc4ccc(S(F)(F)(F)(F)F)cc4)cc3)C2)ccc1O (stereo not shown) [Example 6, 1-(4-Hydroxy-3-methoxybenzoyl)-N-(4-(4-(pentafluorosulfanyl)phenoxy)phenyl)piperidine-3-carboxamide]
